System: ATGL
Test: Western blot of ATGL level in HepG2 cells
Type: cell-based
Design: key to Increase in ATGL level: + = slight or in insignificant; ++ = Moderate; +++ and ++++ = active; +++ and ++++ = active; +++++ = very active
Conditions: for Increase in ATGL level: HepG2 cells, score; for Increase in ATGL level / ATGL level in HepG2 cells: western blot; for EC50: fold increase of ATGL by densitometry, as % of 1.6 fold maximum with siCOP1, doses 10-5000 nM, read-out: EC50 (in-vitro); for ATGL level in HepG2 cells: 24 hours, 10 μM screening or 50 nM-5 μM dose dependent
Experimental: To select the compounds capable of inhibiting the ubiquitination of ATGL by COP1 by targeting the VP motif, confocal microscopy was performed with the provided molecules. If the compound was effective in inhibiting the interaction, there would be a reduction in the number of fat droplets in the cells after treatment. […] With this rationale in mind, HepG2 cells were induced to accumulate lipid droplets after treatment with 250 µM of oleate and 10 μM of the specific compounds were added. The potential of the compounds to bring about a reduction in the number of fat droplets was then checked by comparison with oleate induced cells by counting number of droplets of approximately 20 cells from each treatment and calculating the average number of lipid droplets of each cell. The selected compounds were then subjected to dose dependent treatments and the ones which could maintain its potency to reduce fat droplets at lower doses were then selected for western blot analysis. The compound which could reduce the number of fat droplets in the cells are expected to raise the levels of ATGL since they are likely to deter COP1 from ubiquitinating ATGL. This increase will be visible only in the protein level and gene expression is likely to remain unchanged since ubiquitination is a […] modification. Thus, western blot was performed to check ATGL levels in the cells with the selected molecules.
HepG2 cells were treated with the compounds 9, 10, 11, 17, 18, 23, 24, 115, 123, 127, 139,107, 171, 179, 73, 187, 211, 215, 219, 223, 232, 238, 241, 244, 258, 299, 308, and 333a, (10 μM for initial screening and 50 nM, 100 nM, 200 nM, 500 nM, 1 μM and 5 μM for dose dependent assays) for 24 hours. After removing media from the cells, the wells were washed with 1×PBS twice to remove any remnant media. Cells were then lysed in lysis buffer containing 50 mM Tris-HCl (pH 7.4), 100 mM NaCl, 1 mM EDTA, 1 mM EGTA, 1% Triton X-100 and protease inhibitor cocktail (Millipore, Billierica, MA, USA). Following centrifugation at 20,000 g for 20 minutes, the protein solution was extracted from the cells. Protein was estimated using Bradford assay. Bradford's reagent (BioRad) was diluted in 1:4 ratio in double distilled water. 2 μl of protein sample was added to 100 μl of the reagent and absorbance was measured at 595 nm. […] of protein was diluted in lysis buffer. 1× loading buffer diluted from 5× stock containing 250 mM Tris-HCl (pH 6.8), 10% SDS, 50% glycerol, 0.1% bromophenol Blue and 10% β-mercaptoethanol was added. The protein samples were then heated at 95° C. for 10 minutes, cooled and centrifuged at 12,000 g for 2 minutes prior to loading.
For western blotting, the proteins were resolved in 10% SDS PAGE (discontinuous buffer system). 1× running buffer containing SDS, Tris Base and Glycine was used to run the gel at 80V for approximately 2 hours. Transfer was done using PVDF membrane (Millipore) having pore size of 0.45 μm. 1× transfer buffer containing Tris-Base, Glycine and 20% methanol was used for wet transfer. Transfer was done at 90V for 3 hours. Following transfer, the PVDF membrane containing the proteins were washed in 1×PBST comprising of 1×PBS and 1% Tween 20 (Sigma Aldrich). The membrane was then incubated for 1 hour at room temperature in 5% skim milk powder to block the non-specific sites. Following multiple washes with 1×PBST to wash away any remaining blocking buffer, the required primary antibody (COP1 [Bethyl Laboraties], ATGL [Cell Signalling Technology] or Actin[Cell Signalling Technology]) prepared with 1×PBST, 1% Bovine Serum Albumin and 0.04% Sodium Azide was added to the membrane and incubated overnight at 4° C. The next day, the membrane was again washed multiple times with 1×PBST to remove any unbound primary antibody. The membrane was then incubated with goat anti-rabbit secondary antibody (Genei) for 1 hour at room temperature and washed again for multiple times with 1×PBST. […]

Compound	Increase in ATGL level	EC50	ATGL level in HepG2 cells
CCC(COC)n1c(C)nc2ccc(NC(=O)Nc3cccc(C(C)=O)c3)cc2c1=O (centres unmarked) [Compound 281, 1-(3-acetylphenyl)-3-(3-(1-methoxybutan-2-yl)-2-methyl-4-oxo-3,4-dihydroquinazolin-6-yl)ureae]	++		
COCCn1cnc2ccc(NC(=O)Nc3cccc(C(C)=O)c3)c(C3CCNCC3)c2c1=O [Compound 62, 1-(3-acetylphenyl)-3-(3-(2-methoxyethyl)-4-oxo-5-(piperidin-4-yl)-3,4-dihydroquinazolin-6-yl)urea]	+++		
COCCn1cnc2ccc(NC(=O)Nc3cccc(CNC(C)=O)c3)cc2c1=O [Compound 25, N-(3-(3-(3-(2-methoxyethyl)-4-oxo-3,4-dihydroquinazolin-6-yl)ureido)benzyl)acetamide]	+		
CC(=O)c1cccc(NC(=O)Nc2ccc3ncn(CCOC(C)C)c(=O)c3c2)c1 [Compound 183, 1-(3-acetylphenyl)-3-(3-(2-isopropoxyethyl)-4-oxo-3,4-dihydroquinazolin-6-yl)urea]	+++		
CC(=O)c1cccc(NC(=O)Nc2ccc3ncn(C4CCCCC4)c(=O)c3c2)c1 [Compound 187, 1-(3-acetylphenyl)-3-(3-cyclohexyl-4-oxo-3,4-dihydroquinazolin-6-yl)urea]	+++		
COCCn1cnc2ccc(NC(=O)Nc3cccc(C(C)=O)c3)c(-c3ccc(OC)cc3)c2c1=O [Compound 64, 1-(3-acetylphenyl)-3-(3-(2-methoxyethyl)-5-(4-methoxyphenyl)-4-oxo-3,4-dihydroquinazolin-6-yl)urea]	+		
COCCn1c(-c2cnccn2)nc2ccc(NC(=O)Nc3cccc(C(C)=O)c3)cc2c1=O [Compound 223, 1-(3-acetylphenyl)-3-(3-(2-methoxyethyl)-4-oxo-2-(pyrazin-2-yl)-3,4-dihydroquinazolin-6-yl)urea]		70.3 nM	increased ATGL level
COCCn1c(C(=O)N2CCN(C)CC2)nc2ccc(NC(=O)Nc3cccc(C(C)=O)c3)cc2c1=O [Compound 333a, 1-(3-acetylphenyl)-3-(3-(2-methoxyethyl)-2-(4-methylpiperazine-1-carbonyl)-4-oxo-3,4-dihydroquinazolin-6-yl)urea]			increased ATGL level
COCCn1cnc2ccc(NC(=O)Nc3ccccc3C(F)(F)F)cc2c1=O [Compound 39, 1-(3-(2-methoxyethyl)-4-oxo-3,4-dihydroquinazolin-6-yl)-3-(2-(trifluoromethyl)phenyl)urea]	++		
COCCn1cnc2ccc(NC(=O)Nc3ccc(C(F)(F)F)cc3)cc2c1=O [Compound 38, 1-(3-(2-methoxyethyl)-4-oxo-3,4-dihydroquinazolin-6-yl)-3-(4-(trifluoromethyl)phenyl)urea]	++		
COCCn1cnc2ccc(NC(=O)Nc3cccc(C(C)=O)c3)c(C3=CCN(C(=O)OC(C)(C)C)CC3)c2c1=O [Compound 59, tert-butyl 4-(6-(3-(3-acetylphenyl)ureido)-3-(2-methoxyethyl)-4-oxo-3,4-dihydroquinazolin-5-yl)-5,6-dihydropyridine-1 (2H)-carboxylate]	+		
CC(=O)c1cccc(NC(=O)Nc2ccc3ncn(N4CCOCC4)c(=O)c3c2)c1 [Compound 340, 1-(3-acetylphenyl)-3-(3-morpholino-4-oxo-3,4-dihydroquinazolin-6-yl)urea]	+		
COCCn1c(CN2CCCC2)nc2ccc(NC(=O)Nc3cccc(C(C)=O)c3)cc2c1=O [Compound 232, 1-(3-acetylphenyl)-3-(3-(2-methoxyethyl)-4-oxo-2-(pyrrolidin-1-ylmethyl)-3,4-dihydroquinazolin-6-yl)urea]	+++	434 nM	increased ATGL level
COCCn1c(C)nc2ccc(NC(=O)Nc3cccc(C(C)=O)c3)c(Br)c2c1=O [Compound 345, 1-(3-acetylphenyl)-3-(5-bromo-3-(2-methoxyethyl)-2-methyl-4-oxo-3,4-dihydroquinazolin-6-yl)urea]	+		

— patent US12528777B2, “Quinazolinones derivatives for treatment of non-alcoholic fatty liver disease, preparation and use thereof” (Council of Scientific and Industrial Research, priority 2020, dated 2026)
